One experiment deals with T1, KDM4C (JMJD2C) (Homo sapiens, UniProt Q9H3R0).
T1 sequence (Q9H3R0 1-349): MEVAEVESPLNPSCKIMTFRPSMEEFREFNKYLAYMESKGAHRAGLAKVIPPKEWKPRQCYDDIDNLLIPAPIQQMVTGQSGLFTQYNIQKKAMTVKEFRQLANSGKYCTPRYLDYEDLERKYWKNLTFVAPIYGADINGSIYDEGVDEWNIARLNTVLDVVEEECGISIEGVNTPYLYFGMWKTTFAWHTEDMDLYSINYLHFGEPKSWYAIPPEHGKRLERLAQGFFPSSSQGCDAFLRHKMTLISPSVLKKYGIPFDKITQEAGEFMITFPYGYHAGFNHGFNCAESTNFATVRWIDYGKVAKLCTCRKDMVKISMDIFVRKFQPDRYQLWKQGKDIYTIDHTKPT
The experiment can be described thus: Histone lysine demethylase AlphaLISA assay, KDM4C. Type of experiment: biochemical. The conditions noted are these: read-out: KDM4C HDME Inhibition IC50. As to the method:
(§1) Assays are performed analogously to the protocol described by PerkinElmer (Roy et al. PerkinElmer Technical Note: AlphaLISA #12, April 2011)
Enzymes are dissolved in enzyme buffer and incubated for 10 min before being added to 3% DMSO solutions of compounds in enzyme buffer. Incubated for another 10 minutes, before substrate solution is added and the reaction mixture is incubated at room temperature. 10 μL acceptor beads, suspended in Epigenetic Buffer (Perkin Elmer AL008) from stock, are added and the suspension is incubated in the dark at room temperature, before a suspension of streptavidin donor beads (Perkin Elmer 6760002) in Epigenetic Buffer is added. After incubation at room temperature in the dark the plates are read.
BK9M3: Biotin-ARTKQTAR(KMe3)STGGKAPRKQ-NH2 (Caslo, Denmark) […]
(§2) Substrate Solution: Substrate, 25 μM L-Asc, and 10 μM α-KG in Buffer A.

The target of another experiment is T2, KDM5B (PLU-1) (Homo sapiens, UniProt Q9UGL1).
T2 sequence (Q9UGL1 1-809): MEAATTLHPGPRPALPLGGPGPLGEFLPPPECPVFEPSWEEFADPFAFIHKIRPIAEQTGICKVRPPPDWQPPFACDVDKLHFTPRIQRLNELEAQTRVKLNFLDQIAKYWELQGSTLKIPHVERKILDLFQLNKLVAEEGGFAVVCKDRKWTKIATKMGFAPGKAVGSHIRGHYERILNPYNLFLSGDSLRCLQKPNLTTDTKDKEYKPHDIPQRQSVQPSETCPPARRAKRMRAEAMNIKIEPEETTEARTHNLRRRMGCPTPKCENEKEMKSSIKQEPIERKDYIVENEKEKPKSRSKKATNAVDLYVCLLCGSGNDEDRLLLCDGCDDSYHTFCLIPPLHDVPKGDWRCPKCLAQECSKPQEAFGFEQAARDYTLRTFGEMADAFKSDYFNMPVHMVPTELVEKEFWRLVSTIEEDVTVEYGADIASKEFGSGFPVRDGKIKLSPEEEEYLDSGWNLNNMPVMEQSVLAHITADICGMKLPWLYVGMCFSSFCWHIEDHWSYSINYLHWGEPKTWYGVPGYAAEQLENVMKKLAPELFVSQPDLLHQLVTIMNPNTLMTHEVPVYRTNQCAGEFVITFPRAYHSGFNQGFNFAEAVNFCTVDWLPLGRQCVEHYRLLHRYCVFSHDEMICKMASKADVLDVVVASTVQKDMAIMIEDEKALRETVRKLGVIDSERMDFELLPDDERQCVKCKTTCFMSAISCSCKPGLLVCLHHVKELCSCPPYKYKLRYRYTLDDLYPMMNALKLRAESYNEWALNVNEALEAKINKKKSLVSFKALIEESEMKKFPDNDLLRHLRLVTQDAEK
The experiment can be described thus: Histone lysine demethylase AlphaLISA assay, KDM5B. The format is biochemical. The conditions noted are these: read-out: KDM5B HDME Inhibition IC50. As to the method: as §1
(§3) Enzymes are dissolved in enzyme buffer and incubated for 10 min before being added to 3% DMSO solutions of compounds in enzyme buffer. Incubated for another 10 minutes, before substrate solution is added and the reaction mixture is incubated at room temperature. 10 μL acceptor beads, suspended in Epigenetic Buffer (Perkin Elmer AL008) from stock, are added and the suspension is incubated in the dark at room temperature, before a suspension of streptavidin donor beads (Perkin Elmer 6760002) in Epigenetic Buffer is added. After incubation at room temperature in the dark the plates are read. […]
H3K4M3B: H-ART(Kme3)QTARKSTGGKAPRKQLA-NH-Biotin (Caslo, Denmark) […]
as §2
Background: Bead proximity is the source of the signal in Alpha formats.

For a further experiment, the target named is KDM6A (UTX) (Homo sapiens, UniProt O15550). In words: Histone lysine demethylase AlphaLISA assay, KDM6A. Type of experiment: biochemical. The conditions noted are these: read-out: KDM6A HDME Inhibition IC50. How it is done: as §1, §3
BK27M3: Biotin-ATKAAR(Kme3)SAPATGGVKKPHRY-NH2? (Caslo, Denmark) […]
as §2

The test system of a further experiment is H3K4me3 mark. In words: Histone lysine demethylase immunofluorescence assay, non-transfected U2OS cells. The format is cell-based. The conditions noted are these: Homo sapiens, staining of the H3K4me3 mark, 20 hours incubation with compound. As to the method: U2OS cells were harvested and seeded into multi well plates into media containing compound. The media used was DMEM containing 5% FBS and pen/strep. 20 hours after incubation of cells with compounds, the cells were washed once in PBS, harvested by fixation with formaldehyde 4% aqueous solution, and washed in PBS. Subsequently, the cells were permeabilized in PBS with 0.2% Triton X-100. Blocking was performed in PBS with 0.2% Triton X-100 and 5% FBS. The cells were incubated with αH3K4me3 primary antibody (Cell Signaling, #9751S) in blocking solution over night at 4° C. After incubation with primary antibody, the cells were washed with PBS, incubated with secondary antibody (Alexa fluor 594 goat anti rabbit IgG, Invitrogen, A11012) and Hoechst, (Sigma, 33342) in blocking solution, and washed again with PBS. Finally, PBS was added and high throughput imaging and analysis were performed by an IN Cell Analyzer 1000 (GE Healthcare). The IC50 values were based on an average measure of the staining of the H3K4me3 mark in cells.

The next experiment relates to MCF7 cells. The experiment can be described thus: Cell proliferation assay MCF7. Type of experiment: cell-based. The conditions noted are these: MCF7 human breast cancer cells; 120 hours; ATPlite 1 Step. As to the method: MCF7 cells were seeded in multi well plates at a density optimized to give approximately 90% confluent cells at the time of harvest. Cells were incubated for 24 hours before addition of compound. Compounds were diluted in complete medium and added to the plates in duplicates. The final concentration of DMSO was maximum 0.5%. Complete medium used was DMEM with GlutaMAX containing 10% FBS and pen/strep.
120 hours after addition of compounds, the plates were harvested and analyzed by ATPlite 1 Step (Perkin Elmer, cat no 6016739) according to the manufactures recommendation.

The target in a further experiment is T3, KDM2B (FBXL10) (Homo sapiens, UniProt Q8NHM5).
T3 sequence (Q8NHM5 1-650): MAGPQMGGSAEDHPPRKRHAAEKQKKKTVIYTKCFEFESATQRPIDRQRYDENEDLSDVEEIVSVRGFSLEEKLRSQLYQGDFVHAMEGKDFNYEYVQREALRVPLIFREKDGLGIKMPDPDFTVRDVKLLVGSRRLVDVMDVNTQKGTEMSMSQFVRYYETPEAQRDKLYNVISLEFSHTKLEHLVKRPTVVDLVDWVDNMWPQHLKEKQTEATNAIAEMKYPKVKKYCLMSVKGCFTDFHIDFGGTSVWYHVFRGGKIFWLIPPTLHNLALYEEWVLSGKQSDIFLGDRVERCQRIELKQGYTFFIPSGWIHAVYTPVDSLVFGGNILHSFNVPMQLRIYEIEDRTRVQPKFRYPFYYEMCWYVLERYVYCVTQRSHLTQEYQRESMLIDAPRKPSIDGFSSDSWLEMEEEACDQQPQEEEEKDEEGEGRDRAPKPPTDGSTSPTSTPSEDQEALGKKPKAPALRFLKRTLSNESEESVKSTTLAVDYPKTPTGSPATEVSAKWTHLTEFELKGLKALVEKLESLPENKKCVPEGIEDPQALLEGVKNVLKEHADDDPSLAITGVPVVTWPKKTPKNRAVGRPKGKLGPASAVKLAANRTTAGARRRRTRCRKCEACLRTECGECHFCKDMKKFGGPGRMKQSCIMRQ
The experiment can be described thus: Histone lysine demethylase AlphaLISA assay, KDM2B. Type of experiment: biochemical. The conditions noted are these: read-out: KDM2B HDME Inhibition IC50. As to the method: as §1, §3
BH3K36M2: RKAAPATGGVK(Me2)KPHRYRPGTVK-(BIOTIN)? (Anaspec)
as §2

Chain of KDM6A (UTX) (O15550 919-1401): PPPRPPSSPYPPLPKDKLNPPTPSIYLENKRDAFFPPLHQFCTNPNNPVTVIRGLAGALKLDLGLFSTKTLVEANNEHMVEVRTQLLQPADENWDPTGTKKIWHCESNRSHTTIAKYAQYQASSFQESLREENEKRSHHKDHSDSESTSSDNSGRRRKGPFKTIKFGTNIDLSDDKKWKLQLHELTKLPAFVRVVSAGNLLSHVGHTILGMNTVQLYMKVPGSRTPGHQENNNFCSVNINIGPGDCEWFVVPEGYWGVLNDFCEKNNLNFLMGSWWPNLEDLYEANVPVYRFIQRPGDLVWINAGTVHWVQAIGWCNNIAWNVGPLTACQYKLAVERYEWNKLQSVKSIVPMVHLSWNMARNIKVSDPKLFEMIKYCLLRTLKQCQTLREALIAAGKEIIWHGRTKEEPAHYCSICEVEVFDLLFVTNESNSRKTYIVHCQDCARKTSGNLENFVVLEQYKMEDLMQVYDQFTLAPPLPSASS

With `CCN(CC)CCCCNCc1cc(CNC(=O)C(=O)OC(C)(C)C)ccn1` [Compound 28, tert-butyl ({[2-({[4-(diethylamino)-butyl]amino}methyl)pyridin-4-yl]methyl}carbamoyl)-formate], the half-inhibitory concentration (IC50) at KDM4C (JMJD2C) was above 2.5 µM; on KDM5B (PLU-1) it was 0.25 to 2.5 µM; on KDM6A (UTX) it was above 2.5 µM; in the experiment with H3K4me3 mark, 0.25 to 2.5 µM. In the experiment with MCF7 cells, this compound yielded a concentration for a half-maximal effect (EC50) of 0.25 to 2.5 µM.
Regarding `CCN(CC)CCCCNCc1cc(C=NNc2ccc(C#N)cc2)ccn1` [Compound 70, 4-[2-{[2-({[4-(diethylamino)-butyl]amino}methyl)pyridin-4-yl]methylidene}-hydrazin-1-yl]benzonitrile], the concentration for half-maximal inhibition (IC50) at KDM4C (JMJD2C) is above 2.5 µM; on KDM5B (PLU-1) it was 0.25 to 2.5 µM; on KDM6A (UTX) it was above 2.5 µM; with H3K4me3 mark it was 0.25 to 2.5 µM. Moreover, in the experiment on MCF7 cells, the 50% effective concentration (EC50) fell in the range of 0.25 to 2.5 µM.
Regarding `CCN(CC)CCCCNCc1cc(C=NCC(C)O)ccn1` (stereo not shown) [Compound 74, 1-[{[2-({[4-(diethylamino)-butyl]amino}-methyl)pyridin-4-yl]methylidene}-amino]propan-2-ol], the values for the concentration for half-maximal inhibition (IC50) at KDM4C (JMJD2C), on KDM5B (PLU-1) and in the experiment with H3K4me3 mark were above 2.5 µM, below 0.25 µM and below 0.25 µM, respectively. In the experiment on MCF7 cells, this compound showed a concentration for a half-maximal effect (EC50) below 0.25 µM.
As to `CCN(CC)CCCCNCc1cc(/C=N/CC2(CO)CC2)ccn1` [Compound 77, (1-{[{[2-({[4-(diethylamino)-butyl]amino}-methyl)pyridin-4-yl]-methylidene}amino]-methyl}cyclopropyl)-methanol], the IC50 was above 2.5 µM on KDM2B (FBXL10), above 2.5 µM on KDM4C (JMJD2C), 0.25 to 2.5 µM on KDM5B (PLU-1) and below 0.25 µM with H3K4me3 mark. The 50% effective concentration (EC50) in the experiment with MCF7 cells was below 0.25 µM.
Consider `CCN(CC1CCCN1C)C(=O)CNCc1cc(/C=N/CCO)ccn1` (stereo not shown) [Compound 79, N-ethyl-2-[({4-[[(2-hydroxyethyl)imino]-methyl]pyridin-2-yl}methyl)amino]-N-[(1-methylpyrrolidin-2-yl)-methyl]acetamide], for which the half-inhibitory concentration (IC50) is above 2.5 µM at KDM2B (FBXL10), 0.25 to 2.5 µM at KDM4C (JMJD2C), below 0.25 µM on KDM5B (PLU-1) and below 0.25 µM in the experiment on H3K4me3 mark. The EC50 with MCF7 cells was below 0.25 µM.
Consider `CCN(CC)CCCCNCc1cc(/C=N/CC(O)Cc2ccccc2)ccn1` (stereo not shown) [Compound 84, 1-[{[2-({[4-(diethylamino)-butyl]amino}methyl)pyridin-4-yl]methylidene}amino]-3-phenylpropan-2-ol], for which the IC50 was above 2.5 µM at KDM2B (FBXL10), above 2.5 µM at KDM4C (JMJD2C), 0.25 to 2.5 µM at KDM5B (PLU-1) and above 2.5 µM on KDM6A (UTX). In the experiment with MCF7 cells, this compound had an EC50 below 0.25 µM.
In the case of `CCN(CCN(C)C)C(=O)CNCc1cc(/C=N/CC(CO)Cc2ccccc2)ccn1` (stereo not shown) [Compound 89, 2-[({4-[[(2-benzyl-3-hydroxypropyl)imino]methyl]pyridin-2-yl}methyl)amino]-N-[2-(dimethylamino)ethyl]-N-ethylacetamide], the 50% inhibitory concentration (IC50) at KDM2B (FBXL10) was above 2.5 µM; at KDM4C (JMJD2C) it was 0.25 to 2.5 µM; at KDM5B (PLU-1), below 0.25 µM; at KDM6A (UTX), above 2.5 µM. Moreover, in the experiment on MCF7 cells, the concentration for a half-maximal effect (EC50) was below 0.25 µM.
For `CCN(CC)CCN(CC)C(=O)CNCc1cc(C=O)ccn1` [Compound 116, N-[2-(diethylamino)-ethyl]-N-ethyl-2-{[(4-formylpyridin-2-yl)methyl]amino}-acetamide], the half-inhibitory concentration (IC50) at KDM4C (JMJD2C) was below 0.25 µM; at KDM5B (PLU-1) it was below 0.25 µM; at KDM6A (UTX) it was above 2.5 µM; in the experiment with H3K4me3 mark it was below 0.25 µM. In the experiment with MCF7 cells, this compound returned an EC50 below 0.25 µM.
Take `CCN(CC1CCCN1C)C(=O)CNCc1cc(C=O)ccn1` (stereo not shown) [Compound 119, N-ethyl-2-{[(4-formylpyridin-2-yl)methyl]amino}-N-[(1-methylpyrrolidin-2-yl)methyl]acetamide]: the half-maximal inhibitory concentration (IC50) at KDM4C (JMJD2C) is above 2.5 µM; at KDM5B (PLU-1) it was below 0.25 µM; in the experiment with H3K4me3 mark, below 0.25 µM. The EC50 in the experiment on MCF7 cells was below 0.25 µM.

For orientation: IC50 means the concentration needed to halve the response being measured. One may read the EC50 as the midpoint of the concentration-response curve. A lower EC50 goes with greater potency.

The record behind these values is patent US9650339B2, “Inhibitors of histone demethylases” (Gilead Sciences, Inc., priority 2013, dated 2017).
